Test results taken from paper PMC7552917, “Systematic exploration of different E3 ubiquitin ligases: an approach towards potent and selective CDK6 degraders” (Chemical Science, 2020).
Where two headings read alike, the source gives them in different places.

How the values were obtained:
[1] = target: T1, CDK6 (Homo sapiens, UniProt Q00534); test: CDK6 degradation, western blot of MM.1S cells; format: cell-based; conditions: 16 h
T1 construct: Percentage values are normalized to DMSO-treated MM.1S cells and the respective loading controls; endogenous in cells; host or cells: MM.1S (human multiple myeloma)
T1 sequence (Q00534 whole entry): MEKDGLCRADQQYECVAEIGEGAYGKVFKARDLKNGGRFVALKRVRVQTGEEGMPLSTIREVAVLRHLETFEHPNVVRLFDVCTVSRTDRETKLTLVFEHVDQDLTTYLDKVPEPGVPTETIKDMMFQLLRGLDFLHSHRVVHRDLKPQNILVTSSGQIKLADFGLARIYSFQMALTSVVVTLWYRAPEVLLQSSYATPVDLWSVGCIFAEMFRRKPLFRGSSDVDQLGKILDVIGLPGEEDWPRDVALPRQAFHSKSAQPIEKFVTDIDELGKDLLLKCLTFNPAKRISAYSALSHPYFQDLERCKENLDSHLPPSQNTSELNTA
Excerpt: (§1) We determined the concentration of both kinases and CRBN, the latter in order to control the expression of the corresponding ligase. Since IMiDs, such as pomalidomide, cause the degradation of the lymphoid transcription factors Ikaros (IKZF1) and Aiolos (IKZF3) through the involvement of CRBN,[53],[54] this undesired effect was inspected. […] As further characteristics of CDK4/6d, the desired selectivity of CDK6 over CDK4 degradation and the unwanted influence on the IKZF1 concentration were determined. […] Next, we determined the concentration- and time-dependent activity of 11 (Fig. S2, ESI ^†).
(§2) Multiple myeloma, leukaemia, and murine cell lines:
(§3) After respective designated treatments, cells were washed with 1× PBS and lysed in IP lysis buffer (Pierce) containing HALT protease and phosphatase inhibitor cocktail (Thermo Scientific). Sodium dodecyl sulfate-polyacrylamide gel electrophoresis (SDS-PAGE) was performed with 5–20 µg of protein loaded per sample. Gel electrophoresis was carried out at a constant voltage. Proteins were transferred onto Immobilon-P transfer membranes (Millipore). Membranes were blocked with 5% milk in Tris Buffered Saline with 0.05% Tween 20 (TBS-T) followed by overnight incubation at 4 °C with shaking in primary antibodies diluted in 5% BSA in TBS-T. After incubation with respective secondary HRP-conjugated antibodies diluted in 5% milk in TBST, detection of proteins was performed using either WesternBright ECL HRP substrate or WesternBright Sirius HRP substrate (Advansta). Chemiluminescence was detected with ChemiDoc™ XRS+ System (Bio-Rad). For further detection of other proteins on the same membrane, membranes were subjected to incubation in Restore Western Blot Stripping Buffer, followed by re-blocking, and further probing of proteins was […]

[2] = target: T2, IKZF1 (Homo sapiens, UniProt Q13422+Q96SW2); test: Neosubstrate IKZF1 degradation, western blot of MM.1S cells; format: cell-based; conditions: 16 h, normalized to DMSO (100%); for remaining activity at 0.1 µM: MM1.S, read-out: D IKZF1: remaining IKZF1 levels;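 for all read-outs here: test concentration 0.1 µM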
T2 construct: endogenous in cells; host or cells: MM.1S (human multiple myeloma)
T2 sequence (Q13422 whole entry): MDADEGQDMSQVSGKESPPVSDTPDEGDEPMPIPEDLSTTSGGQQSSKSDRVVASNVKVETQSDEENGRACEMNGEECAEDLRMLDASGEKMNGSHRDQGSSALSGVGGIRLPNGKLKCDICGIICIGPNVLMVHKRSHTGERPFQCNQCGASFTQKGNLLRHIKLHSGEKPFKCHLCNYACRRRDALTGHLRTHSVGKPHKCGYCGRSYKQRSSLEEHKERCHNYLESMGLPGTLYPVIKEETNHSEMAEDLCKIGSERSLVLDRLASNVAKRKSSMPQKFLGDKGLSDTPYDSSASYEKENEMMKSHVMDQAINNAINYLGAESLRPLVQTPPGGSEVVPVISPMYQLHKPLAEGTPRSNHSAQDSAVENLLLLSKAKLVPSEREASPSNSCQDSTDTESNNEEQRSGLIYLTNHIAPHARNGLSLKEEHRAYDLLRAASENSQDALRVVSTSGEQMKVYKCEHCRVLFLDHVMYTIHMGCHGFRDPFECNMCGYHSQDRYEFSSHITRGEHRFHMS
T2 sequence (Q96SW2 whole entry): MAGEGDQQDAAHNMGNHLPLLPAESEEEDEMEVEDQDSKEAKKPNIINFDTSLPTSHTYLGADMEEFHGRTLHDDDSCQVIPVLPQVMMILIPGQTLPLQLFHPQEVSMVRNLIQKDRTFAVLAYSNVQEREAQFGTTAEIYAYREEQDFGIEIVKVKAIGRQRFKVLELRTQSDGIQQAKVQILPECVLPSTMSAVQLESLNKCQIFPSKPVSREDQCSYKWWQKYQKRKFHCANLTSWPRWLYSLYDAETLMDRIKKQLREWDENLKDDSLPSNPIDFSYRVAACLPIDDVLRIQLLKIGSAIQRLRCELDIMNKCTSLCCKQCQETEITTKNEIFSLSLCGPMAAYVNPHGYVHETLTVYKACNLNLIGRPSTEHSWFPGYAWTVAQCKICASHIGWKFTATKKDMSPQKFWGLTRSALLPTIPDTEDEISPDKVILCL
T2 sequence (Q16531 whole entry partner): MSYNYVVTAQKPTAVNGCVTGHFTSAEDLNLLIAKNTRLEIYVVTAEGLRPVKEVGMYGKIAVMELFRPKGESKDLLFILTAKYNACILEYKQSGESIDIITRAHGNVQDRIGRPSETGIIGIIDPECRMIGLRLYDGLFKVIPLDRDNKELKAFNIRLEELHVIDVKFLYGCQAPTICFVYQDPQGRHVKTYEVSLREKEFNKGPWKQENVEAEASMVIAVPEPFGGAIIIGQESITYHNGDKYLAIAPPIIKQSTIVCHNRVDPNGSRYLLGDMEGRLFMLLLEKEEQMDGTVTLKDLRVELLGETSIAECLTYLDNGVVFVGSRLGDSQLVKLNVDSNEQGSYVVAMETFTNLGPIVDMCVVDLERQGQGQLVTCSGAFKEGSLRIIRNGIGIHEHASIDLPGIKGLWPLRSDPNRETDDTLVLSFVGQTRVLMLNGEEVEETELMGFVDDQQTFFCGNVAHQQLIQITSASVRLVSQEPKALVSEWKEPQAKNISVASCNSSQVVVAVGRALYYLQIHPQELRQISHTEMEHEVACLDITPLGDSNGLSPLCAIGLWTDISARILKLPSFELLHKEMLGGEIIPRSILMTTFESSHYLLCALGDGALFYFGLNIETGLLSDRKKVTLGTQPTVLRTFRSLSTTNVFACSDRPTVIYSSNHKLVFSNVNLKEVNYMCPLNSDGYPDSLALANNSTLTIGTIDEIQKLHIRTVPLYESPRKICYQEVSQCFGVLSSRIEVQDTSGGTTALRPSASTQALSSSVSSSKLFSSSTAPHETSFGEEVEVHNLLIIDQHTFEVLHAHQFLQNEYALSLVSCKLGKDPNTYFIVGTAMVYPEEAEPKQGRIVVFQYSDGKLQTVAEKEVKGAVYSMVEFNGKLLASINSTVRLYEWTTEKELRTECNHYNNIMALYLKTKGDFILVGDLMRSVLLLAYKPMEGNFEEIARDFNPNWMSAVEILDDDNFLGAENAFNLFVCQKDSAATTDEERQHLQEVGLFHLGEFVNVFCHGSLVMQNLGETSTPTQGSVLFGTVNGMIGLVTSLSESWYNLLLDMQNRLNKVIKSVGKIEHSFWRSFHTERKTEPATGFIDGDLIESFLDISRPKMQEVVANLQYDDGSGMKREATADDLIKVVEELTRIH
Excerpt: as §1, §2, §3

[3] = target: T3, CDK4 (Homo sapiens, UniProt P11802); test: CDK4 degradation, western blot of MM.1S cells; format: cell-based; conditions: 16 h; for Effect of MDM2 ligands on CDK4 levels: indicated concentrations
T3 construct: Percentage values are normalized to DMSO-treated MM.1S cells and the respective loading controls; endogenous in cells; host or cells: MM.1S (human multiple myeloma)
T3 sequence (P11802 whole entry): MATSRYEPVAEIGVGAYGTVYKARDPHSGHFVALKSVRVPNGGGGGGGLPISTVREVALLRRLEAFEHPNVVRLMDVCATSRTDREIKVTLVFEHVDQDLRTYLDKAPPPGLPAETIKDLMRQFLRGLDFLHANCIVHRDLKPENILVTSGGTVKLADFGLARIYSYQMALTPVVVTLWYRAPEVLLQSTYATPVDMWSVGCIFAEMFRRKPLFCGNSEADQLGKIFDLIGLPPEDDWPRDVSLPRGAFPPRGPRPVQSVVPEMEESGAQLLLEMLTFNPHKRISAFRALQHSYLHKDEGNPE
Excerpt: as §1, §2, §3

[4] = elog D7.4 by chromatographic (HPLC) method; format: physicochemical; conditions: Polaris C18-A column, pH 7.4, read-out: elog D7.4 (experimental distribution coefficient at pH 7.4)
Protocol: Supplementary Information: Physical Chemistry
N. Molecular Descriptor Calculation […]
O. Physicochemical Measurements
The determination of the elog D7.4 values was performed by a chromatographic method according to […]
The column was a Polaris C18-A column (2 mm I.D., 50 mm length, 3 μm particle size) from Agilent Technologies. A linear mobile phase gradient was applied with […] TRIS buffer adjusted to pH 7.4 and MeCN. Therefore, the gradient was run from 5% […]
between the runs with a constant flow-rate of 0.8 ml/min and a temperature of 25 °C. The output wavelength of the detector was set to 269.5 nm. In order to calibrate the log D7.4 to the retention time, 6 different drugs with known log D7.4 were dissolved in DMSO and 10 µl were injected […]
Approximately 1 mg of the samples was dissolved in DMSO and 5 µl were injected. Analyses were conducted in duplicates. Subsequently, the mean retention times of the analytes were taken to calculate their log D7.4 values with aid of the calibration line.

[5] = MM1.S, 0.1 μM, MM.1S cells, normalized to DMSO (100%), read-out: D CDK6: remaining CDK6 levels
[6] = MM1.S, 0.1 μM, MM.1S cells, normalized to DMSO (100%), read-out: D CDK4: remaining CDK4 levels
[7] = 1 μM, MM.1S cells, normalized to DMSO (100%)

remaining activity at 0.1 µM [1, 5] [%]	remaining activity at 0.1 µM [3, 6] [%]	Selectivity ratio D CDK4/D CDK6 for the degradation of CDK6 over CDK4 ([1]; 0.1 μM, MM.1S cells)	remaining activity at 0.1 µM [2] [%]	chromatographic logD [4]	SMILES	other results
8.4	19	2.3	0.8	2.8	CC(=O)c1c(C)c2cnc(Nc3ccc(N4CCN(C(=O)COCCOCCNc5cccc6c5C(=O)N(C5CCC(=O)NC5=O)C6=O)CC4)cn3)nc2n(C2CCCC2)c1=O (stereo not drawn) [compound 12]	
7.7	15	1.9	1	2.8	CC(=O)c1c(C)c2cnc(Nc3ccc(N4CCN(C(=O)COCCOCCOCCNc5cccc6c5C(=O)N(C5CCC(=O)NC5=O)C6=O)CC4)cn3)nc2n(C2CCCC2)c1=O (stereo not drawn) [compound 13]	
7.8	26	3.3	0.8	3.1	CC(=O)c1c(C)c2cnc(Nc3ccc(N4CCN(C(=O)CCCCOCCOCCOCCNc5cccc6c5C(=O)N(C5CCC(=O)NC5=O)C6=O)CC4)cn3)nc2n(C2CCCC2)c1=O (stereo not drawn) [compound 14]	
8.2	61	7.4		2.7	CC(=O)c1c(C)c2cnc(Nc3ccc(N4CCN(CCOCCOCC(=O)N[C@H](C(=O)N5C[C@H](O)C[C@H]5C(=O)NCc5ccc(-c6scnc6C)cc5)C(C)(C)C)CC4)cn3)nc2n(C2CCCC2)c1=O [compound 23]	
14	80	5.7		3.5	CC(=O)c1c(C)c2cnc(Nc3ccc(N4CCN(CCOCCOCCOCC(=O)N[C@H](C(=O)N5C[C@H](O)C[C@H]5C(=O)NCc5ccc(-c6scnc6C)cc5)C(C)(C)C)CC4)cn3)nc2n(C2CCCC2)c1=O [compound 24]	
40	> 95			4.8	CC(=O)c1c(C)c2cnc(Nc3ccc(N4CCN(CCCCCCOCCCCCOCCCCC(=O)N[C@H](C(=O)N5C[C@H](O)C[C@H]5C(=O)NCc5ccc(-c6scnc6C)cc5)C(C)(C)C)CC4)cn3)nc2n(C2CCCC2)c1=O [compound 25]	
62	> 95			4.5	CC(=O)c1c(C)c2cnc(Nc3ccc(N4CCN(CCCCCCCCOc5cc(-c6scnc6C)ccc5CNC(=O)[C@@H]5C[C@@H](O)CN5C(=O)[C@H](C(C)C)N5Cc6ccccc6C5=O)CC4)cn3)nc2n(C2CCCC2)c1=O [compound 28]	
29	> 95			3.2	CC(=O)c1c(C)c2cnc(Nc3ccc(N4CCN(CCOCCOCCOc5cc(-c6scnc6C)ccc5CNC(=O)[C@@H]5C[C@@H](O)CN5C(=O)[C@H](C(C)C)N5Cc6ccccc6C5=O)CC4)cn3)nc2n(C2CCCC2)c1=O [compound 29]	
69	94	1.4		3.1	CC(=O)c1c(C)c2cnc(Nc3ccc(N4CCN(CCOCCOCCOCCOc5cc(-c6scnc6C)ccc5CNC(=O)[C@@H]5C[C@@H](O)CN5C(=O)[C@H](C(C)C)N5Cc6ccccc6C5=O)CC4)cn3)nc2n(C2CCCC2)c1=O [compound 30]	
65	> 95			5.3	CC(=O)c1c(C)c2cnc(Nc3ccc(N4CCN(CCCCCCOCCCCCOCCCCCOc5cc(-c6scnc6C)ccc5CNC(=O)[C@@H]5C[C@@H](O)CN5C(=O)[C@H](C(C)C)N5Cc6ccccc6C5=O)CC4)cn3)nc2n(C2CCCC2)c1=O [compound 31]	
1.4	65	46		3	CC(=O)c1c(C)c2cnc(Nc3ccc(N4CCN(CCOCCOCCOc5cc(-c6scnc6C)ccc5CNC(=O)[C@@H]5C[C@@H](O)CN5C(=O)[C@@H](NC(=O)C5(C#N)CC5)C(C)(C)C)CC4)cn3)nc2n(C2CCCC2)c1=O [compound 33]	

Further lines, the molecule ahead of its results:

SMILES	remaining activity at 0.1 µM [1, 5] [%]	remaining activity at 0.1 µM [3, 6] [%]	Selectivity ratio D CDK4/D CDK6 for the degradation of CDK6 over CDK4 ([1]; 0.1 μM, MM.1S cells)	remaining activity at 0.1 µM [2] [%]	chromatographic logD [4]	other results
Nc1cccc2c1C(=O)N(C1CCC(=O)NC1=O)C2=O (stereo not drawn) [3 (POM), pomalidomide, reference compound]	91	91				D IKZF1: remaining IKZF1 levels ([2]; 0.1 μM): 17%
COc1cc(C(=O)O)ccc1NC(=O)[C@@H]1N[C@@H](CC(C)(C)C)[C@](C#N)(c2ccc(Cl)cc2F)[C@H]1c1cccc(Cl)c1F [6 (Idasanutlin), idasanutlin, reference compound]	83	78	0.9			remaining activity at 1 µM ([1]; MM1.S, 1 μM, MM.1S cells, normalized to DMSO (100%), read-out: D CDK6: remaining CDK6 levels): 70%; remaining activity at 1 µM ([3]; MM1.S, 1 μM, MM.1S cells, normalized to DMSO (100%), read-out: D CDK4: remaining CDK4 levels): 40%; Effect of MDM2 ligands on CDK4 levels ([3]; MM.1S cells): dose-dependent effects on CDK4 levels
CC(C)[C@@H](CS(=O)(=O)C(C)C)N1C(=O)[C@@](C)(CC(=O)O)C[C@H](c2cccc(Cl)c2)[C@H]1c1ccc(Cl)cc1 [AMG232, reference compound]						Effect of MDM2 ligands on CDK4 levels ([3]; MM.1S cells): diminished CDK4 levels in a dose-dependent manner
CC(=O)c1c(C)c2cnc(Nc3ccc(N4CCN(C(=O)CCC(=O)NCCCOCCCCOCCCNc5cccc6c5C(=O)N(C5CCC(=O)NC5=O)C6=O)CC4)cn3)nc2n(C2CCCC2)c1=O (stereo not drawn) [compound 15]	65	91	1.4	56	3.1	
CC(=O)c1c(C)c2cnc(Nc3ccc(N4CCN(C(=O)CCCCOCCCCCOCCCCCCNc5cccc6c5C(=O)N(C5CCC(=O)NC5=O)C6=O)CC4)cn3)nc2n(C2CCCC2)c1=O (stereo not drawn) [compound 16]	32	76	2.4	6.7	4.6	
CC(=O)c1c(C)c2cnc(Nc3ccc(N4CCN(C(=O)CCCCCOCCCCCCOCCCCCCNc5cccc6c5C(=O)N(C5CCC(=O)NC5=O)C6=O)CC4)cn3)nc2n(C2CCCC2)c1=O (stereo not drawn) [compound 17]	51	86	1.7	18	5.2	
CC(=O)c1c(C)c2cnc(Nc3ccc(N4CCN(C(=O)CCCCCOCCCCOCCCCOCCCCNc5cccc6c5C(=O)N(C5CCC(=O)NC5=O)C6=O)CC4)cn3)nc2n(C2CCCC2)c1=O (stereo not drawn) [compound 18]	17	57	3.4	5.9	4.4	
CN[C@H](C)C(=O)N[C@H](C(=O)N1C[C@@H](Oc2cccc(OCCOCCOCCOCCN3CCN(c4ccc(Nc5ncc6c(C)c(C(C)=O)c(=O)n(C7CCCC7)c6n5)nc4)CC3)c2)C[C@H]1C(=O)N[C@@H]1CCCc2ccccc21)C1CCCCC1 [compound 36]					4.5	D CDK6: remaining CDK6 levels [1, 7]: failed to degrade; remaining activity at 0.1 µM ([1]; MM1.S, read-out: D CDK6: remaining CDK6 levels): > 95%; D CDK4: remaining CDK4 levels [3, 7]: failed to degrade; remaining activity at 0.1 µM ([3]; MM1.S, read-out: D CDK4: remaining CDK4 levels): > 95%
